# Measured values: article PMC7265341, “Quantifying CDK inhibitor selectivity in live cells” (Nature Communications, 2020)
# “And” between values parts separate entries of the source, which are not always exact repeats. Identical values can stand only once. Like-named read-outs stand apart in the source and are kept apart here.
# Legend:
# Type in all cases: binding
# CDK2/Cyclin E1 = CDK2/Cyclin E1 (Homo sapiens, UniProt P24941); assay: NanoBRET live-cell target engagement, CDK2-NanoLuc/Cyclin E1 in HEK-293; details: for inhibition at 10 µM: read-out: CDK2/E1 Inhibition at 10µM (%); for CDK2 Occupancy (%): Panel A
# CDK3/Cyclin E1 = CDK3/Cyclin E1 (Homo sapiens, UniProt Q00526); assay: NanoBRET live-cell target engagement, CDK3-NanoLuc/Cyclin E1 in HEK-293; details: for inhibition at 10 µM: read-out: CDK3/E1 Inhibition at 10µM (%); for IC50: read-out: CDK3/E1 IC50
# CDK6 [1] = molecular target: T1, CDK6 (Homo sapiens, UniProt Q00534); assay: Intracellular residence time by cellular washout, CDK6; details: Panel B;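 also: NanoBRET cellular washout in live cells: compound preincubated 2 h at 37 °C, then removed, energy transfer probe association tracked over time versus DMSO vehicle, rising BRET indicating target release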
# CDK6 [2] = molecular target: T1, CDK6; assay: Real-time analysis of engagement (kobs, IC50 vs time) in live cells, CDK6; details: real-time BRET, 25 °C; response to reviewers
# Procedure: CDK2/Cyclin E1 complex was measured in the donor NanoBRET channel (using the standard 450 nm bandpass filter on the Glomax Discover plate reader). Ternary complex was measured in the presence […]
# the acceptor NanoBRET channel (using the standard 600 nm longpass filter on the Glomax Discover plate reader). Total LgBiT expression level was determined in the presence of a saturating concentration […]
# mg/mL digitonin (as a permeabilization agent). […]
# respectively, at probe concentrations identical to those described for steady state analysis of target engagement. Cells were pre-equilibrated with energy transfer probe for 40 min prior to addition of […]
# intervals at 25 °C (temperature reduced to avoid evaporation of cell culture medium). To quantify […]
# vs time. Apparent association rate was also plotted as k obs vs [RGB286638], where kobs was determined using the one phase association equation (Supplementary Equation 2) in graphpad prism.
# Y=Y0 + (Plateau-Y0)*(1-e-K*X) (2) where Y = mBRET ratio, X = time, and K = the observed rate constant ( kobs). Both analyses support […]
# Generation of endogenously edited CDK-HiBiT cell lines and target engagement analysis at endogenous protein levels. HEK293 cells were edited to express HiBiT fused to the N -terminus of CDK9 or the C-terminus of CDK16, as described previously 3. For CDK9, the sequence of the guide RNA was […]
# T1 sequence (Q00534 whole entry): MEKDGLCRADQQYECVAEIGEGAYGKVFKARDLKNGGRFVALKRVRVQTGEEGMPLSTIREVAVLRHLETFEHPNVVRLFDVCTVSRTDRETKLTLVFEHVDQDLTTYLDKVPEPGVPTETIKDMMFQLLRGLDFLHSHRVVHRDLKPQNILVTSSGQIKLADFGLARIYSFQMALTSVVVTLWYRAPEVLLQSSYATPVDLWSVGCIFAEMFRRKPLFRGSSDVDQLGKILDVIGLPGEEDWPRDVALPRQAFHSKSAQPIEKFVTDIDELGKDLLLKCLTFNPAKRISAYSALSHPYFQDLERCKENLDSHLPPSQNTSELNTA
# T1 sequence (P24385 whole entry partner): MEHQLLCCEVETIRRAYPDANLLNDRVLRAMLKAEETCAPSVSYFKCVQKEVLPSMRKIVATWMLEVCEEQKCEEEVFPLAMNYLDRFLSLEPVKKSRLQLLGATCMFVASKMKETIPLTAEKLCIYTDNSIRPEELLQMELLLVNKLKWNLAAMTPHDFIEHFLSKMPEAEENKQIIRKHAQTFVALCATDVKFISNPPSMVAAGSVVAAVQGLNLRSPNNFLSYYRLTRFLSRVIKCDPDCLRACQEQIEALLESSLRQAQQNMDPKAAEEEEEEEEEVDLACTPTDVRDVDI
# Sequence of CDK3/Cyclin E1 (Q00526 whole entry): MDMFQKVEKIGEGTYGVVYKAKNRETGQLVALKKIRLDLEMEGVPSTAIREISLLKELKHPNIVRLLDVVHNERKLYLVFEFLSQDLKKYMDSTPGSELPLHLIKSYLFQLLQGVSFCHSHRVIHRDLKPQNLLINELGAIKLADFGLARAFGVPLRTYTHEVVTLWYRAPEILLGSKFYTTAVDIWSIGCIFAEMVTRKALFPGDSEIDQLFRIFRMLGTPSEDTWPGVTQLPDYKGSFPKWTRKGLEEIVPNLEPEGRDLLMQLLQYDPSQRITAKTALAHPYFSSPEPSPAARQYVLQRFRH
# Sequence of CDK3/Cyclin E1 (P24864 whole entry partner): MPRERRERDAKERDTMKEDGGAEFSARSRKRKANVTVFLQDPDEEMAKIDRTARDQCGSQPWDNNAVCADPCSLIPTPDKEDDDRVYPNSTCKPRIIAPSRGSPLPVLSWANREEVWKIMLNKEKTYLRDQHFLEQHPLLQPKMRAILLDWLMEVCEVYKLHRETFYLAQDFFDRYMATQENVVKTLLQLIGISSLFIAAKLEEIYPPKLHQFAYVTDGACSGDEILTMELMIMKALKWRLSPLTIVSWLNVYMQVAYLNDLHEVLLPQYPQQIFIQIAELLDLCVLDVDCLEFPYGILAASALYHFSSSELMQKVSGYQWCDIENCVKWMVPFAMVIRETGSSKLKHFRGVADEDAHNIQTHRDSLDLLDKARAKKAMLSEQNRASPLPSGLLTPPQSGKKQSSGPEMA
structure (smiles),measurement,setting,value
COCCN1CCN(Cc2ccc(-c3n[nH]c4c3C(=O)c3c(NC(=O)NN5CCOCC5)cccc3-4)cc2)CC1 [RGB286638],inhibition at 10 µM,CDK2/Cyclin E1; average of experiments,84.4%
same,inhibition at 10 µM,CDK2/Cyclin E1; independent experiment 1,83.7%
same,inhibition at 10 µM,CDK2/Cyclin E1; independent experiment 2,85.1%
same,CDK2 Occupancy (%),CDK2/Cyclin E1; LOG10([RGB-286638]) 0.045757 LOG10(µM),96.9519%
same,CDK2 Occupancy (%),CDK2/Cyclin E1; LOG10([RGB-286638]) 0.522879 LOG10(µM),98.1016%
same,CDK2 Occupancy (%),CDK2/Cyclin E1; LOG10([RGB-286638]) 1 LOG10(µM),98.1016%
same,CDK2 Occupancy (%),CDK2/Cyclin E1; LOG10([RGB-286638]) -0.43136 LOG10(µM),95.1872%
same,CDK2 Occupancy (%),CDK2/Cyclin E1; LOG10([RGB-286638]) -0.90849 LOG10(µM),90.2941%
same,CDK2 Occupancy (%),CDK2/Cyclin E1; LOG10([RGB-286638]) -1.38561 LOG10(µM),78.6096%
same,CDK2 Occupancy (%),CDK2/Cyclin E1; LOG10([RGB-286638]) -1.86273 LOG10(µM),57.754%
same,CDK2 Occupancy (%),CDK2/Cyclin E1; LOG10([RGB-286638]) -2.33985 LOG10(µM),30.4813%
same,CDK2 Occupancy (%),CDK2/Cyclin E1; LOG10([RGB-286638]) -2.81697 LOG10(µM),11.4973%
same,CDK2 Occupancy (%),CDK2/Cyclin E1; LOG10([RGB-286638]) -3.29409 LOG10(µM),5.615%
same,CDK2 Occupancy (%),CDK2/Cyclin E1; LOG10([RGB-286638]) -3.77121 LOG10(µM),0.2674%
same,IC50,"CDK2/Cyclin E1; average (± SEM where n=3), read-out: CDK2/E1 IC50",14 ± 5 nM
same,IC50,"CDK2/Cyclin E1; independent experiment 1, read-out: CDK2/E1 IC50",8.9 nM
same,IC50,"CDK2/Cyclin E1; independent experiment 2, read-out: CDK2/E1 IC50",9.8 nM
same,IC50,"CDK2/Cyclin E1; independent experiment 3, read-out: CDK2/E1 IC50",23 nM
same,IC50,"CDK2/Cyclin E1; live HEK-293, 2 h, mean ± S.E.M. (n=3) or mean (n=2), read-out: IC50 for CDK/cyclin complexes, CDK2/E1",12 to 16 nM
same,inhibition at 10 µM,CDK3/Cyclin E1; average of experiments,91.3%
same,inhibition at 10 µM,CDK3/Cyclin E1; independent experiment 1,89.1%
same,inhibition at 10 µM,CDK3/Cyclin E1; independent experiment 2,93.6%
same,IC50,CDK3/Cyclin E1; average (± SEM where n=3),12 nM
same,IC50,CDK3/Cyclin E1; independent experiment 1,14 nM
same,IC50,CDK3/Cyclin E1; independent experiment 2,10 nM
same,CDK6 occupancy (%) over time after compound washout,CDK6 [1]; Time (Min) 0,82.1951 and 85.1351 and 80.5402
same,CDK6 occupancy (%) over time after compound washout,CDK6 [1]; Time (Min) 2.97013,79.5935 and 83.3333 and 77.8966
same,CDK6 occupancy (%) over time after compound washout,CDK6 [1]; Time (Min) 5.97045,77.3984 and 80.6306 and 74.3678
same,CDK6 occupancy (%) over time after compound washout,CDK6 [1]; Time (Min) 8.97078,75.7724 and 78.2883 and 76.8161
same,CDK6 occupancy (%) over time after compound washout,CDK6 [1]; Time (Min) 11.9714,73.9024 and 76.5766 and 70.3448
same,CDK6 occupancy (%) over time after compound washout,CDK6 [1]; Time (Min) 14.9718,72.7642 and 74.3243 and 69.1954
same,CDK6 occupancy (%) over time after compound washout,CDK6 [1]; Time (Min) 17.9723,71.5447 and 72.4324 and 67.4713
same,CDK6 occupancy (%) over time after compound washout,CDK6 [1]; Time (Min) 20.9723,70.4878 and 71.2613 and 68.046
same,CDK6 occupancy (%) over time after compound washout,CDK6 [1]; Time (Min) 23.9731,69.0244 and 70.3604 and 68.6207
same,CDK6 occupancy (%) over time after compound washout,CDK6 [1]; Time (Min) 26.9737,68.8618 and 68.5586 and 67.4713
same,CDK6 occupancy (%) over time after compound washout,CDK6 [1]; Time (Min) 29.9742,67.3171 and 67.8378 and 66.8966
same,CDK6 occupancy (%) over time after compound washout,"CDK6 [1]; Time (Min) 32.9743, listed as RGB-286638",67.6423 and 66.9369 and 67.1264
same,CDK6 occupancy (%) over time after compound washout,CDK6 [1]; Time (Min) 35.9749,67.2358 and 66.5766 and 66.0919
same,CDK6 occupancy (%) over time after compound washout,CDK6 [1]; Time (Min) 38.9753,66.8293
same,CDK6 occupancy (%) over time after compound washout,CDK6 [1]; Time (Min) 236.996,66.1789 and 64.7748 and 56.7816
same,CDK6 occupancy (%) over time after compound washout,CDK6 [1]; Time (Min) 239.996,65.6911 and 64.3243 and 56.5517
same,CDK6 occupancy (%) over time after compound washout,CDK6 [1]; Time (Min) 242.996,66.4228 and 63.0631 and 56.3218
same,CDK6 occupancy (%) over time after compound washout,CDK6 [1]; Time (Min) 245.996,65.6911 and 63.5135 and 59.5402
same,CDK6 occupancy (%) over time after compound washout,CDK6 [1]; Time (Min) 248.996,65.6911 and 63.0631 and 59.5402
same,CDK6 occupancy (%) over time after compound washout,CDK6 [1]; Time (Min) 251.996,65.7724 and 63.1531 and 61.6092
same,CDK6 occupancy (%) over time after compound washout,CDK6 [1]; Time (Min) 254.996,65.8537 and 64.3243 and 54.7126
same,CDK6 occupancy (%) over time after compound washout,CDK6 [1]; Time (Min) 257.996,64.9594 and 63.3333 and 57.7011
same,CDK6 occupancy (%) over time after compound washout,CDK6 [1]; Time (Min) 260.996,65.1219 and 63.8739 and 51.954
same,CDK6 occupancy (%) over time after compound washout,CDK6 [1]; Time (Min) 263.996,63.9024 and 63.4234 and 57.1264
same,CDK6 occupancy (%) over time after compound washout,"CDK6 [1]; Time (Min) 266.996, listed as RGB-286638",65.5285 and 63.1531 and 57.4713
same,CDK6 occupancy (%) over time after compound washout,CDK6 [1]; Time (Min) 269.996,64.7968 and 62.5225 and 59.6552
same,CDK6 occupancy (%) over time after compound washout,CDK6 [1]; Time (Min) 272.996,65.8537 and 62.5225 and 60.3448
same,CDK6 occupancy (%) over time after compound washout,CDK6 [1]; Time (Min) 275.996,64.3902 and 62.0721 and 53.3333
same,CDK6 occupancy (%) over time after compound washout,CDK6 [1]; Time (Min) 278.996,65.2032 and 62.6126 and 63.7931
same,CDK6 occupancy (%) over time after compound washout,CDK6 [1]; Time (Min) 281.996,64.8781 and 62.0721 and 57.7011
same,CDK6 occupancy (%) over time after compound washout,CDK6 [1]; Time (Min) 284.996,65.7724 and 63.3333 and 62.8736
same,CDK6 occupancy (%) over time after compound washout,CDK6 [1]; Time (Min) 287.996,63.5772 and 62.5225 and 61.3793
same,CDK6 occupancy (%) over time after compound washout,CDK6 [1]; Time (Min) 290.996,62.6016 and 62.5225 and 59.8851
same,CDK6 occupancy (%) over time after compound washout,CDK6 [1]; Time (Min) 293.996,64.5529 and 62.8829 and 61.8391
same,CDK6 off rate from kobs values,CDK6 [2],> 300 min
